According to the supplement of paper PMC10307832:

Tests used:
Experiment in all cases: relative viability (nuclei count vs DMSO), 5 days (fraction); higher = more cells survive
[1] = system: LOU-NH91
Procedure, shortened: (§1)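 One day after seeding in 1536-well plates, lung cancer cell lines were dosed by pin tool. Dosing was either single-drug or a fixed anchor-drug dose plus five library-drug doses (not always all listed) in √10 steps. After 5 days, nuclei were stained in one fix-and-stain step and counted on 4× images, and relative viability is the nuclei count of treated wells over that of vehicle wells, given as the median of duplicate plates.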

[2] = system: HCC-44
Procedure, shortened: as §1

[3] = system: NCI-H838
Procedure, shortened: as §1

[4] = system: HCC-78
Procedure, shortened: as §1

[5] = system: NCI-H727
Procedure, shortened: as §1

[6] = system: NCI-H1755
Procedure, shortened: as §1

[7] = system: SW 1573
Procedure, shortened: as §1

[8] = system: HCC-366
Procedure, shortened: as §1

[9] = system: NCI-H1734
Procedure, shortened: as §1

[10] = system: NCI-H1650
Procedure, shortened: as §1

[11] = system: NCI-H2009
Procedure, shortened: as §1

[12] = system: UMC-11
Procedure, shortened: as §1

[13] = system: ABC-1
Procedure, shortened: as §1

[14] = system: LK-2
Procedure, shortened: as §1

[15] = system: 201T
Procedure, shortened: as §1

[16] = system: NCI-H520
Procedure, shortened: as §1

[17] = system: NCI-H2405
Procedure, shortened: as §1

[18] = system: NCI-H2228
Procedure, shortened: as §1

[19] = system: NCI-H1666
Procedure, shortened: as §1

[20] = system: NCI-H1355
Procedure, shortened: as §1

[21] = system: BEN
Procedure, shortened: as §1

[22] = system: NCI-H2347
Procedure, shortened: as §1

[23] = system: NCI-H358
Procedure, shortened: as §1

Q: What does the source list for `O=c1[nH]c2ccccc2n1C1CCN(CCCC(c2ccc(F)cc2)c2ccc(F)cc2)CC1` [Pimozide] + COc1cccc2cc(-c3nc([C@H]4CC[C@H](C(=O)O)CC4)n4ncnc(N)c34)[nH]c12 [OSI-027] (partner 0.5 µM)?
A: relative viability ([1]; first compound 0.08 µM): 0.442; relative viability ([1]; first compound 0.253 µM): 0.699; relative viability ([1]; first compound 0.8 µM): 0.638; relative viability ([1]; first compound 2.53 µM): 0.729; relative viability ([1]; first compound 8 µM): 0.708; relative viability ([2]; first compound 0.08 µM): 0.489; relative viability ([2]; first compound 0.253 µM): 0.554; relative viability ([2]; first compound 0.8 µM): 0.4; relative viability ([2]; first compound 2.53 µM): 0.52; relative viability ([2]; first compound 8 µM): 0.289; relative viability ([3]; first compound 0.08 µM): 0.409; relative viability ([3]; first compound 0.253 µM): 0.388; relative viability ([3]; first compound 0.8 µM): 0.33; relative viability ([3]; first compound 2.53 µM): 0.4; relative viability ([3]; first compound 8 µM): 0.353; relative viability ([4]; first compound 0.08 µM): 0.439; relative viability ([4]; first compound 0.8 µM): 0.345; relative viability ([4]; first compound 2.53 µM): 0.36; relative viability ([4]; first compound 8 µM): 0.354; relative viability ([5]; first compound 0.08 µM): 0.717; relative viability ([5]; first compound 0.253 µM): 0.55; relative viability ([5]; first compound 0.8 µM): 0.512; relative viability ([5]; first compound 2.53 µM): 0.652; relative viability ([5]; first compound 8 µM): 0.54; relative viability ([6]; first compound 0.08 µM): 0.678; relative viability ([6]; first compound 0.253 µM): 0.687; relative viability ([6]; first compound 0.8 µM): 0.678; relative viability ([6]; first compound 2.53 µM): 0.597; relative viability ([6]; first compound 8 µM): 0.51; relative viability ([7]; first compound 0.08 µM): 0.611; relative viability ([7]; first compound 0.253 µM): 0.668; relative viability ([7]; first compound 0.8 µM): 0.602; relative viability ([7]; first compound 2.53 µM): 0.525; relative viability ([7]; first compound 8 µM): 0.307; relative viability ([8]; first compound 0.08 µM): 0.825; relative viability ([8]; first compound 0.253 µM): 0.795; relative viability ([8]; first compound 0.8 µM): 0.477; relative viability ([8]; first compound 2.53 µM): 0.614; relative viability ([8]; first compound 8 µM): 0.206; relative viability ([9]; first compound 0.08 µM): 0.604; relative viability ([9]; first compound 0.253 µM): 0.625; relative viability ([9]; first compound 2.53 µM): 0.581; relative viability ([9]; first compound 8 µM): 0.549; relative viability ([10]; first compound 0.08 µM): 0.459; relative viability ([10]; first compound 0.253 µM): 0.668; relative viability ([10]; first compound 0.8 µM): 0.491; relative viability ([10]; first compound 2.53 µM): 0.643; relative viability ([10]; first compound 8 µM): 0.437; relative viability ([11]; first compound 0.08 µM): 0.69; relative viability ([11]; first compound 0.253 µM): 0.655; relative viability ([11]; first compound 0.8 µM): 0.671; relative viability ([11]; first compound 2.53 µM): 0.526; relative viability ([11]; first compound 8 µM): 0.416; relative viability ([12]; first compound 0.08 µM): 0.515; relative viability ([12]; first compound 0.253 µM): 0.421; relative viability ([12]; first compound 0.8 µM): 0.51; relative viability ([12]; first compound 2.53 µM): 0.357; relative viability ([12]; first compound 8 µM): 0.312; relative viability ([13]; first compound 0.08 µM): 0.514; relative viability ([13]; first compound 0.253 µM): 0.496; relative viability ([13]; first compound 0.8 µM): 0.422; relative viability ([13]; first compound 2.53 µM): 0.351; relative viability ([13]; first compound 8 µM): 0.354; relative viability ([14]; first compound 0.08 µM): 0.183; relative viability ([14]; first compound 0.253 µM): 0.249; relative viability ([14]; first compound 0.8 µM): 0.179; relative viability ([14]; first compound 2.53 µM): 0.198; relative viability ([14]; first compound 8 µM): 0.167; relative viability ([15]; first compound 0.08 µM): 0.821; relative viability ([15]; first compound 0.253 µM): 0.825; relative viability ([15]; first compound 0.8 µM): 0.711; relative viability ([15]; first compound 2.53 µM): 0.709; relative viability ([15]; first compound 8 µM): 0.584; relative viability ([16]; first compound 0.08 µM): 0.24; relative viability ([16]; first compound 0.253 µM): 0.255; relative viability ([16]; first compound 0.8 µM): 0.235; relative viability ([16]; first compound 2.53 µM): 0.212; relative viability ([16]; first compound 8 µM): 0.227; relative viability ([17]; first compound 0.08 µM): 0.654; relative viability ([17]; first compound 0.253 µM): 0.576; relative viability ([17]; first compound 0.8 µM): 0.689; relative viability ([17]; first compound 2.53 µM): 0.665; relative viability ([17]; first compound 8 µM): 0.707; relative viability ([18]; first compound 0.08 µM): 0.537; relative viability ([18]; first compound 0.253 µM): 0.644; relative viability ([18]; first compound 0.8 µM): 0.587; relative viability ([18]; first compound 2.53 µM): 0.451; relative viability ([18]; first compound 8 µM): 0.221; relative viability ([19]; first compound 0.08 µM): 0.874; relative viability ([19]; first compound 0.253 µM): 0.832; relative viability ([19]; first compound 0.8 µM): 0.772; relative viability ([19]; first compound 2.53 µM): 0.699; relative viability ([19]; first compound 8 µM): 0.808; relative viability ([20]; first compound 0.08 µM): 0.326; relative viability ([20]; first compound 0.253 µM): 0.398; relative viability ([20]; first compound 0.8 µM): 0.305; relative viability ([20]; first compound 2.53 µM): 0.357; relative viability ([20]; first compound 8 µM): 0.34; relative viability ([21]; first compound 0.08 µM): 0.275; relative viability ([21]; first compound 0.253 µM): 0.293; relative viability ([21]; first compound 0.8 µM): 0.307; relative viability ([21]; first compound 2.53 µM): 0.321; relative viability ([21]; first compound 8 µM): 0.304; relative viability ([22]; first compound 0.253 µM): 0.497; relative viability ([22]; first compound 0.8 µM): 0.413; relative viability ([22]; first compound 2.53 µM): 0.39; relative viability ([22]; first compound 8 µM): 0.359; relative viability ([23]; first compound 0.08 µM): 0.829; relative viability ([23]; first compound 0.253 µM): 0.74; relative viability ([23]; first compound 0.8 µM): 0.697; relative viability ([23]; first compound 2.53 µM): 0.646; relative viability ([23]; first compound 8 µM): 0.678
